We go through four molecules from US10065990B2, “Cyclic peptide compound, and preparation method, pharmaceutical composition and use thereof” (HANGZHOU GUANYU BIO-MEDICAL CO., LTD, priority 2013, dated 2018).

One assay addresses T1, HDAC11 (Homo sapiens, UniProt Q96DB2).
T1 sequence (Q96DB2 1-347): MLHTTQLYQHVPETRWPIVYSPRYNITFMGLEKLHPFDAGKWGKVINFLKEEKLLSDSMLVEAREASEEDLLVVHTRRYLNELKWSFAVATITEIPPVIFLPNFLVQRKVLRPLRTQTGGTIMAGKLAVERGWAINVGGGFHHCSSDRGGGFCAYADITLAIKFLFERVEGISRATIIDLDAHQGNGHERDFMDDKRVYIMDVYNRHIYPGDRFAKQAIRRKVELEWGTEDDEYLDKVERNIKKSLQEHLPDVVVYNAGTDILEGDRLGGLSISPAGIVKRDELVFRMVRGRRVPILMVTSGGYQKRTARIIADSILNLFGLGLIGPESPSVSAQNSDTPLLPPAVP
The assay can be described thus: HDAC biochemical activity measurement (fluorescent substrate deacetylation).

Another assay deals with T2, HDAC7 (Homo sapiens, UniProt Q8WUI4).
T2 sequence (Q8WUI4 1-952): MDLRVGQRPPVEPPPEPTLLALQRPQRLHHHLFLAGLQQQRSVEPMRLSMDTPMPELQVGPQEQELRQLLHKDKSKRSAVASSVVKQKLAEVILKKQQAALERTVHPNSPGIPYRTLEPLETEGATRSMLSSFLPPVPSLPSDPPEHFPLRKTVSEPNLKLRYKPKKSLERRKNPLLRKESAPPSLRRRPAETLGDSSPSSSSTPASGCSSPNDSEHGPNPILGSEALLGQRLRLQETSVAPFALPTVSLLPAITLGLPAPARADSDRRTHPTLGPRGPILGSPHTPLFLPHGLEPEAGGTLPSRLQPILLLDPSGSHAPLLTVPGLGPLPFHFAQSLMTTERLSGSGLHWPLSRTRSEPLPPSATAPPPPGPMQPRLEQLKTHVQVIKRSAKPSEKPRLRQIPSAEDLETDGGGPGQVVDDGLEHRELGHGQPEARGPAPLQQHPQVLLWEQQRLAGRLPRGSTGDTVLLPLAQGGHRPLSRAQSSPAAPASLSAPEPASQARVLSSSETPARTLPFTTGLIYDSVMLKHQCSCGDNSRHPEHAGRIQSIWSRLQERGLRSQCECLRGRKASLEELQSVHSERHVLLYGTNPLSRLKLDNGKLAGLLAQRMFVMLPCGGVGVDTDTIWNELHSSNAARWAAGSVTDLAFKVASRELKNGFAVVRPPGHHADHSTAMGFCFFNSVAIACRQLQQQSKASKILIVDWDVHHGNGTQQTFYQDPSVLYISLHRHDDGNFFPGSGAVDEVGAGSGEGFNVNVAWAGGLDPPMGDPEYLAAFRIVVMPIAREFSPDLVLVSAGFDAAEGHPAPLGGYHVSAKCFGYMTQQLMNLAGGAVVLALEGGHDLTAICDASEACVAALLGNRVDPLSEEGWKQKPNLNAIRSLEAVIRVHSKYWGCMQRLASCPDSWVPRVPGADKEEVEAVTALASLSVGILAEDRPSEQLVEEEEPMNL
The description is as above. The settings on record: HDAC7; 37° C. 30 minutes.

The test system of assay [1] is SGC-7901 (human gastric cancer cells). The assay can be described thus: MTT cancer cell growth inhibition. In kind it is cell-based. The following applies: MTT, 72 hours incubation, SGC-7901 cells, read-out: GI50 SGC-7901. The essentials:
(§1)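 MTT viability, 570 nm, GI50. Cells 1500/well; compound 72 h at final 10^−5–10^−10 M in triplicate.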

The subject of assay [2] is MCF-7 (human breast cancer cells). The assay can be described thus: MTT cancer cell growth inhibition. In kind it is cell-based. The following applies: 72 hours incubation, read-out: GI50 MCF. The procedure, abridged:
as §1

Assay [3] deals with PANC-1 (Pac-1, human pancreatic cancer cells). The assay can be described thus: MTT cancer cell growth inhibition. In kind it is cell-based. The settings on record: MTT, 72 hours incubation, read-out: GI50 PAN. The essentials:
as §1

Assay [4] relates to lncap (prostate cancer cells). The assay can be described thus: MTT cancer cell growth inhibition. In kind it is cell-based. The following applies: MTT, 72 hours incubation, read-out: GI50 lnca. The essentials: as §1
Assay [5] has as its system Huh-7 (human hepatoma cells). Nature of the assay: MTT cancer cell growth inhibition. In kind it is cell-based. The following applies: MTT, 72 hours incubation, Huh-7 cells, read-out: GI50 Huh-7. The essentials: as §1
In assay [6] the test system is KBM5-T315I (human chronic myelogenous leukemia). Nature of the assay: MTT cancer cell growth inhibition. The following applies: MTT, 72 hours incubation, KBM5-T315I cells, read-out: GI50 KBM5-T315I. In kind it is cell-based. The procedure, abridged: as §1
In assay [7] the test system is MOLT-4 (human acute lymphoblastic leukemia cells). The assay can be described thus: MTT cancer cell growth inhibition. In kind it is cell-based. The settings on record: MTT, 72 hours incubation, read-out: GI50 Mol. The procedure, abridged: as §1
In assay [8] the test system is MDA-MB-231 (breast cancer cells). Nature of the assay: MTT cancer cell growth inhibition. In kind it is cell-based. The essentials: as §1
Assay [9] concerns A549 (human lung cancer cells). Nature of the assay: MTT cancer cell growth inhibition. In kind it is cell-based. The settings on record: MTT, 72 hours incubation, read-out: GI50 A54. The essentials: as §1
A further assay has as its target HDAC2 (Homo sapiens, UniProt Q92769). The assay can be described thus: HDAC biochemical activity measurement (fluorescent substrate deacetylation). The settings on record: 37° C. 30 minutes.
A further assay addresses HDAC1 (Homo sapiens, UniProt Q13547). Described as above.
[10] abbreviates: read-out: IC50 HDAC11, HDAC11, 37° C. 30 minutes.
The mark [11] stands for this setting: read-out: GI50 MDA-MB-231, MTT, 72 hours incubation, MDA-MB-231 cells.
The mark [12] stands for this setting: HDAC1, 37° C. 30 minutes, read-out: IC50 HDAC1.
The mark [13] stands for this setting: Homo sapiens, MDA-MB-231, 72 h, read-out: GI50 MDA-MB-231, MTT, 72 hours incubation, MDA-MB-231 cells.

Structures are written as SMILES. Read-outs that look alike come from different tables or passages of the source.
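Throughout, for IC50 HDAC1, C (six-membered ring with substituents): fluorogenic acetyl-lysine substrate (20 µM) deacetylated by HDAC1, then developer releases fluorophore read at 360 nm excitation and 460 nm emission, inhibitor incubated 30 min at 37 °C.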
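Throughout, for IC50 HDAC1: fluorogenic acetyl-lysine substrate (20 µM) deacetylated by HDAC1, then developer releases fluorophore read at 360 nm excitation and 460 nm emission, inhibitor incubated 30 min at 37 °C.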
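Throughout, for IC50 HDAC7: fluorogenic deacetylation assay using acetyl-lysine substrate at 20 µM, enzyme and compound incubated 30 min at 37 °C, then developer added, fluorescence read at 360/460 nm.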

Sequence of HDAC2 (Q92769 whole entry, species assumed): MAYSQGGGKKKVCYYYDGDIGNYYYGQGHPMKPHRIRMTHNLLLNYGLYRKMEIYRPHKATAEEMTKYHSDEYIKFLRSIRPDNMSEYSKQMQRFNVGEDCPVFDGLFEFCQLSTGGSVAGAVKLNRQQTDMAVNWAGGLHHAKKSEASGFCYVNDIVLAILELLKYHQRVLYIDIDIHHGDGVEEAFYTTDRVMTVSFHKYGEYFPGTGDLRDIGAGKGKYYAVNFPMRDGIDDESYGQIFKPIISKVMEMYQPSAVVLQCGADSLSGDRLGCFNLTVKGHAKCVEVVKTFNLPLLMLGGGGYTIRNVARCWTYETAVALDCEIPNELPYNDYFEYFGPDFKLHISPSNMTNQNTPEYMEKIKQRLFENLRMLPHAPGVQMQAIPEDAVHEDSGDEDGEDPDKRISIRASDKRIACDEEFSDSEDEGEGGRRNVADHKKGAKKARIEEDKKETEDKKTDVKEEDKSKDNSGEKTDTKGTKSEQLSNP
Sequence of HDAC1 (Q13547 whole entry, species assumed): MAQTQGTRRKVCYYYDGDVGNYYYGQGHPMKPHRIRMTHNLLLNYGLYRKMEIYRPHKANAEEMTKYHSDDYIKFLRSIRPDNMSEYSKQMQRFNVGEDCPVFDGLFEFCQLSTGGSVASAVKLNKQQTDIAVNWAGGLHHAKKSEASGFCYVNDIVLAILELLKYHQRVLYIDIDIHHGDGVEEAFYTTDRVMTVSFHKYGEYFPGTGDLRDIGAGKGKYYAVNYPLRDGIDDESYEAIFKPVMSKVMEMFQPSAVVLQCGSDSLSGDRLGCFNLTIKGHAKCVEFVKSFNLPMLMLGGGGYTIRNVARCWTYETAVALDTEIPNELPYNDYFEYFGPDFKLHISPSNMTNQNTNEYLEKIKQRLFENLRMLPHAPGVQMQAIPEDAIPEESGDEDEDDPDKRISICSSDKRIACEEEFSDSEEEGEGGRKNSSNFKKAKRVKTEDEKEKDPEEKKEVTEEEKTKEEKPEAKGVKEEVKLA
Protocol for HDAC11: (§2) The chemical activity of the compound is determined according to the degree of deacetylation inhibition of the HDAC enzyme. This experiment measured the degree of deacetylation related to tumor proliferation and metastasis of HDAC1, HDAC2, HDAC3, HDAC8, HDAC11 five subtypes HDAC enzymes. After the substrate containing an acetylated lysine side chain and HDAC enzyme are labeled with a fluorescent label, the fluorescent substrate is de acetyl. The fluorescent labeled substrate is cleaved by the enzyme, and the fluorescent substance is released, which generates 460 nm emission light under the excitation of 360 nm light.
(§3) HDAC substrate was diluted with reaction buffer to 200M (reaction concentration of 20M), the HDAC enzyme was diluted to the appropriate concentration, then added different concentrations of the test compounds and acted at 37° C. 30 minutes, and then added the same volume of 2-times concentration substrate developing solution (developer), incubated at room temperature for 15 minutes.
Protocol for HDAC2: as §2, §3

With `C/C=C1\NC(=O)c2nc(cc(SC)n2)CNC(=O)C[C@@H](/C=C/CCSC(C)=O)OC(=O)[C@H](C(C)C)NC1=O` [Compound 216], the 50% inhibitory concentration (IC50) on HDAC11 (setting [10]) is 81 nM; against HDAC2 it was 33 nM; at HDAC1 (setting [12]), 155 nM. At HDAC7, the “IC50 HDAC7” value is reported as “no activity”. Also, the GI50 worked out at 38 nM in assay [1]; 50 nM in assay [2] (MCF-7 cells); 20 nM in [3] (PANC-1 cells); 10 nM in [4] (lncap cells); 49 nM in assay [5]; 36 nM in assay [6]. In addition, the GI50 in assay [7] (MOLT-4 cells) was found to be 40 nM; in [8] (setting [11]), 62 nM; in assay [9] (A549 cells), 80 nM.

Turning to `C/C=C1\NC(=O)c2nc(ccc2SC)CNC(=O)C[C@@H](/C=C/CCSC=O)OC(=O)[C@H](C(C)C)NC1=O` [Compound 168], the IC50 was determined as 99 nM on HDAC11, 41 nM on HDAC2 and 91 nM at HDAC1 (setting [12]). Moreover, the “IC50 HDAC7” value on HDAC7 was “no activity”. Moreover, the GI50 in assay [1] (Homo sapiens, SGC-7901, 72 h) is 34 nM; in assay [2] (Homo sapiens, MCF7, 72 h, MCF-7 cells), 60 nM; in [3] (Homo sapiens, PANC-1, 72 h, PANC-1 cells), 60 nM; in [4] (Homo sapiens, LNCaP, 72 h, lncap cells), 20 nM; in assay [5] (Homo sapiens, Huh-7, 72 h), 56 nM; in assay [6] (Homo sapiens, 72 h), 36 nM. For the same molecule, the GI50 in assay [7] (Homo sapiens, MOLT-4, 72 h, MOLT-4 cells) was 100 nM; in [8] (setting [13]) it was 12 nM; in assay [9] (Homo sapiens, A549, 72 h, A549 cells), 80 nM.

With `C/C=C1\NC(=O)c2cc(F)cc(n2)CNC(=O)C[C@@H](/C=C/CCSC(C)=O)OC(=O)[C@H](CC)NC1=O` [Compound 58], the IC50 stood at 97 nM at HDAC11 (setting [10]); 21 nM at HDAC2; 32 nM at HDAC1 (setting [12]); 32 nM on HDAC1 (Table 3, column C, read-out: IC50 HDAC1, C (six-membered ring with substituents)). Besides, the “IC50 HDAC7” value against HDAC7 is recorded as “no activity”. In addition, the GI50 was 51 nM in assay [1] (Homo sapiens, SGC-7901, 72 h); 80 nM in assay [2] (Homo sapiens, MCF7, 72 h); 40 nM in [3] (Homo sapiens, PANC-1, 72 h); 30 nM in assay [4] (Homo sapiens, LNCaP, 72 h); 39 nM in [5] (Homo sapiens, Huh-7, 72 h); 82 nM in assay [6] (Homo sapiens, 72 h). Further, the GI50 in assay [7] (Homo sapiens, MOLT-4, 72 h) came out at 30 nM; in assay [8] (setting [13]), 39 nM; in assay [9] (Homo sapiens, A549, 72 h) it was 50 nM.

On to `C/C=C1\NC(=O)c2cc(SC)cc(n2)CNC(=O)C[C@@H](/C=C/CCSC(C)=O)OC(=O)[C@H](C(C)C)NC1=O` [Compound 224], for which the IC50 was found to be 279 nM on HDAC11 (setting [10]), 335 nM at HDAC2 and 184 nM at HDAC1 (setting [12]). On HDAC7, the “IC50 HDAC7” value is “no activity”. Moreover, the GI50 is 93 nM in assay [1]; 40 nM in assay [2] (MCF-7 cells); 60 nM in assay [3] (PANC-1 cells); 30 nM in [4] (lncap cells); 36 nM in assay [5]; 63 nM in assay [6]. Further, the GI50 in assay [7] (MOLT-4 cells) was 30 nM; in assay [8] (setting [11]) it was 62 nM; in [9] (A549 cells) it was 50 nM.
